Literature values, collected in patent publication US11603416B2, “Method for preparation of derivatives of gram-positive bacteria surface capsular polysaccharide” (priority 2018, dated 2023).

Test system: children with severe ASD
Conditions: oral administration; effect disappears once the drug is discontinued

SMILES: CN[C@H](CC(C)C)C(=O)N[C@H]1C(=O)N[C@@H](CC(N)=O)C(=O)N[C@H]2C(=O)N[C@H]3C(=O)N[C@H](C(=O)N[C@H](C(=O)O)c4cc(O)cc(O)c4-c4cc3ccc4O)[C@H](O)c3ccc(c(Cl)c3)Oc3cc2cc(c3O[C@@H]2O[C@H](CO)[C@@H](O)[C@H](O)[C@H]2O[C@H]2C[C@](C)(N)[C@H](O)[C@H](C)O2)Oc2ccc(cc2Cl)[C@H]1O [vancomycin]
- child patients whose autism symptoms have been relieved for a short time: 80%
